Measurements taken from US12514251B2, “Fused heterocyclic compounds and their use as pest control agents” (priority 2020, dated 2026).

The compounds below were run on Plutella xylostella (assay: Plutella xylostella, leaf dip method). Settings: foliar, cabbage leaf dip, second instar larvae, 72 h after release, dead + moribund vs untreated control, read-out: percent mortality.
Format: in vivo
Protocol: The leaf dip method was used for testing, wherein the required quantity of the compound was weighed and dissolved in a tube containing solvent solution. The tube was put on a vortex at 2000 rpm for 90 min for proper mixing, then diluted with 0.01% Triton-X solution to get the desired test concentration. Cabbage leaves were dipped in the compound solution for 10 seconds, shade dried for 20 min and then transferred into the cells of bioassay trays. A single second instar larva was released into each cell and the tray was covered with a lid. The bio-assay trays were then kept under laboratory conditions at a temperature of 25° C. and a relative humidity of 70%. Observations on dead, moribund and alive larvae were recorded 72 h after the release. Percent mortality was calculated by combining dead and moribund larvae and comparing the result to the one of the untreated control.

Compound | mortality at 300 ppm
CCS(=O)(=O)c1cc(-c2nccs2)cnc1-c1ccn2nc(C(F)(F)F)nc2n1 [Compound 132, 2-(5-(ethylsulfonyl)-6-(2-(trifluoromethyl)-[1,2,4]triazolo[1,5-a]pyrimidin-5-yl)pyridin-3-yl)thiazole] | ≥ 70%
CCS(=O)(=O)c1cc(C)cnc1-c1ccn2nc(C(F)(F)F)cc2n1 [Compound 164, 5-(3-(ethylsulfonyl)-5-methylpyridin-2-yl)-2-(trifluoromethyl)pyrazolo[1,5-a]pyrimidine] | ≥ 70%
CCS(=O)(=O)c1cc(-c2ccn3nc(C(F)(F)F)cc3n2)cnc1-n1ncn(-c2ccc(Cl)cc2)c1=O [Compound 80, 4-(4-chlorophenyl)-2-(3-(ethylsulfonyl)-5-(2-(trifluoromethyl)pyrazolo[1,5-a]pyrimidin-5-yl)pyridin-2-yl)-2,4-dihydro-3H-1,2,4-triazol-3-one] | ≥ 70%
CCS(=O)(=O)c1cc(-c2cccc(OC(F)(F)C(F)F)c2)cnc1-c1ccn2nc(C(F)(F)F)nc2n1 [Compound 144, 5-(3-(ethylsulfonyl)-5-(3-(1,1,2,2-tetrafluoroethoxy)phenyl)pyridin-2-yl)-2-(trifluoromethyl)-[1,2,4]triazolo[1,5-a]pyrimidine] | ≥ 70%
CCS(=O)(=O)c1ccc(CC#N)nc1-c1ccn2nc(C(F)(F)F)cc2n1 [Compound 217, 2-(5-(ethylsulfonyl)-6-(2-(trifluoromethyl)pyrazolo[1,5-a]pyrimidin-5-yl)pyridin-2-yl)acetonitrile] | ≥ 70%
CCSc1cc(-c2ccnn2C)cnc1-c1ccn2nc(C(F)(F)F)cc2n1 [Compound 67, 5-(3-(ethylthio)-5-(1-methyl-1H-pyrazol-5-yl)pyridin-2-yl)-2-(trifluoromethyl)pyrazolo[1,5-a]pyrimidine] | ≥ 70%
CCS(=O)(=O)c1cc(-c2cc(F)cc(F)c2)cnc1-c1ncc2nc(C(F)(F)F)n(C)c2n1 [Compound 122, 2-(5-(3,5-difluorophenyl)-3-(ethylsulfonyl)pyridin-2-yl)-9-methyl-8-(trifluoromethyl)-9H-purine] | ≥ 70%
CCS(=O)(=O)c1ccc(N2CCn3c(nnc3C(F)(F)F)C2)nc1-c1ccn2nc(C(F)(F)F)cc2n1 [Compound 6, 7-(5-(ethylsulfonyl)-6-(2-(trifluoromethyl)pyrazolo[1,5-a]pyrimidin-5-yl)pyridin-2-yl)-3-(trifluoromethyl)-5,6,7,8-tetrahydro-[1,2,4]triazolo[4,3-a]pyrazine] | ≥ 70%
CCS(=O)(=O)c1cc(-c2ccc(F)cc2)cnc1-c1ncc2nc(C(F)(F)F)n(C)c2n1 [Compound 118, 2-(3-(ethylsulfonyl)-5-(4-fluorophenyl)pyridin-2-yl)-9-methyl-8-(trifluoromethyl)-9H-purine] | ≥ 70%
CCS(=O)(=O)c1cc(CC#N)cnc1-c1ccn2nc(C(F)(F)F)cc2n1 [Compound 232, 2-(5-(ethylsulfonyl)-6-(2-(trifluoromethyl)pyrazolo[1,5-a]pyrimidin-5-yl)pyridin-3-yl)acetonitrile] | ≥ 70%
CCS(=O)(=O)c1cc(-c2ccnn2C)cnc1-c1ccn2nc(C(F)(F)F)cc2n1 [Compound 71, 5-(3-(ethylsulfonyl)-5-(1-methyl-1H-pyrazol-5-yl)pyridin-2-yl)-2-(trifluoromethyl)pyrazolo[1,5-a]pyrimidine] | ≥ 70%
CCS(=O)(=O)c1cc(N)cnc1-c1ccn2nc(C(F)(F)F)cc2n1 [Compound 223, 5-(ethylsulfonyl)-6-(2-(trifluoromethyl)pyrazolo[1,5-a]pyrimidin-5-yl)pyridin-3-amine] | ≥ 70%
CCS(=O)(=O)c1ccc(-n2ncn(-c3ccc(OC(F)(F)F)cc3)c2=O)nc1-c1ccn2nc(C(F)(F)F)cc2n1 [Compound 10, 2-(5-(ethylsulfonyl)-6-(2-(trifluoromethyl)pyrazolo[1,5-a]pyrimidin-5-yl)pyridin-2-yl)-4-(4-(trifluoromethoxy)phenyl)-2,4-dihydro-3H-1,2,4-triazol-3-one] | ≥ 70%
CCS(=O)(=O)c1cc(C=C(C)C)cnc1-c1ccn2nc(C(F)(F)F)cc2n1 [Compound 201, 5-(3-(ethylsulfonyl)-5-(2-methylprop-1-en-1-yl)pyridin-2-yl)-2-(trifluoromethyl)pyrazolo[1,5-a]pyrimidine] | ≥ 70%
CCS(=O)(=O)c1cc(-n2cc(Br)cn2)cnc1-c1ccn2nc(C(F)(F)F)cc2n1 [Compound 88, 5-(5-(4-bromo-1H-pyrazol-1-yl)-3-(ethylsulfonyl)pyridin-2-yl)-2-(trifluoromethyl)pyrazolo[1,5-a]pyrimidine] | ≥ 70%
CCS(=O)(=O)c1cc(-c2ccc(Cl)c(F)c2)cnc1-c1ccn2nc(C(F)(F)F)nc2n1 [Compound 162, 5-(5-(4-chloro-3-fluorophenyl)-3-(ethylsulfonyl)pyridin-2-yl)-2-(trifluoromethyl)-[1,2,4]triazolo[1,5-a]pyrimidine] | ≥ 70%

Compound | mortality at 300 ppm
CCS(=O)(=O)c1cc(-n2cnc(Cl)n2)cnc1-c1ccn2nc(C(F)(F)F)nc2n1 [Compound 148, 5-(5-(3-chloro-1H-1,2,4-triazol-1-yl)-3-(ethylsulfonyl)pyridin-2-yl)-2-(trifluoromethyl)-[1,2,4]triazolo[1,5-a]pyrimidine] | ≥ 70%
CCS(=O)(=O)c1ccc(-c2ccc(Cl)cc2)nc1-c1ccn2nc(C(F)(F)F)cc2n1 [Compound 20, 5-(6-(4-chlorophenyl)-3-(ethylsulfonyl)pyridin-2-yl)-2-(trifluoromethyl)pyrazolo[1,5-a]pyrimidine] | ≥ 70%
CCS(=O)(=O)c1cc(-c2cncnc2)cnc1-c1ccn2nc(C(F)(F)F)cc2n1 [Compound 95, 5-(3-(ethylsulfonyl)-5-(pyrimidin-5-yl)pyridin-2-yl)-2-(trifluoromethyl)pyrazolo[1,5-a]pyrimidine] | ≥ 70%
CCS(=O)(=O)c1ccc(-n2ccc(F)n2)nc1-c1ccn2nc(C(F)(F)F)cc2n1 [Compound 140, 5-(3-(ethylsulfonyl)-6-(3-fluoro-1H-pyrazol-1-yl)pyridin-2-yl)-2-(trifluoromethyl)pyrazolo[1,5-a]pyrimidine] | ≥ 70%
CCS(=O)(=O)c1ccc(C2CC2)nc1-c1ccn2nc(C(F)(F)F)nc2n1 [Compound 180, 5-(6-cyclopropyl-3-(ethylsulfonyl)pyridin-2-yl)-2-(trifluoromethyl)-[1,2,4]triazolo[1,5-a]pyrimidine] | ≥ 70%
CCS(=O)(=O)c1ccc(-c2ccc(F)cc2)nc1-c1ccn2nc(C(F)(F)F)cc2n1 [Compound 16, 5-(3-(ethylsulfonyl)-6-(4-fluorophenyl)pyridin-2-yl)-2-(trifluoromethyl)pyrazolo[1,5-a]pyrimidine] | ≥ 70%
CCS(=O)(=O)c1ccc(/C=C/C2CC2)nc1-c1ccn2nc(C(F)(F)F)cc2n1 [Compound 216, (E)-5-(6-(2-cyclopropylvinyl)-3-(ethylsulfonyl)pyridin-2-yl)-2-(trifluoromethyl)pyrazolo[1,5-a]pyrimidine] | ≥ 70%
CCS(=O)(=O)c1cc(C2CCC2)cnc1-c1ccn2nc(C(F)(F)F)cc2n1 [Compound 213, 5-(5-cyclobutyl-3-(ethylsulfonyl)pyridin-2-yl)-2-(trifluoromethyl)pyrazolo[1,5-a]pyrimidine] | ≥ 70%
CCSc1ccc(-n2cncn2)nc1-c1cnc2cc(C(F)(F)F)nn2c1 [Compound 40, 6-(3-(ethylthio)-6-(1H-1,2,4-triazol-1-yl)pyridin-2-yl)-2-(trifluoromethyl)pyrazolo[1,5-a]pyrimidine] | ≥ 70%
C=Cc1cnc(-c2ccn3nc(C(F)(F)F)cc3n2)c(S(=O)(=O)CC)c1 [Compound 212, 5-(3-(ethylsulfonyl)-5-vinylpyridin-2-yl)-2-(trifluoromethyl)pyrazolo[1,5-a]pyrimidine] | ≥ 70%
CCS(=O)(=O)c1cc(-c2ccc(C(F)(F)F)cc2)cnc1-c1ncc2nc(C(F)(F)F)n(C)c2n1 [Compound 129, 2-(3-(ethylsulfonyl)-5-(4-(trifluoromethyl)phenyl)pyridin-2-yl)-9-methyl-8-(trifluoromethyl)-9H-purine] | ≥ 70%
CCS(=O)(=O)c1cc(-c2cccc(C(F)(F)F)c2)cnc1-c1ncc2nc(C(F)(F)F)n(C)c2n1 [Compound 117, 2-(3-(ethylsulfonyl)-5-(3-(trifluoromethyl)phenyl)pyridin-2-yl)-9-methyl-8-(trifluoromethyl)-9H-purine] | ≥ 70%
CCS(=O)(=O)c1cc(-c2ccc(Cl)cc2)cnc1-c1ncc2nc(C(F)(F)F)n(C)c2n1 [Compound 123, 2-(5-(4-chlorophenyl)-3-(ethylsulfonyl)pyridin-2-yl)-9-methyl-8-(trifluoromethyl)-9H-purine] | ≥ 70%
CCS(=O)(=O)c1ccc(-n2cncn2)nc1-c1cnc2cc(C(F)(F)F)nn2c1 [Compound 54, 6-(3-(ethylsulfonyl)-6-(1H-1,2,4-triazol-1-yl)pyridin-2-yl)-2-(trifluoromethyl)pyrazolo[1,5-a]pyrimidine] | ≥ 70%
CCS(=O)(=O)c1ccc(-c2ccc(OC(F)(F)C(F)F)cc2)nc1-c1ccn2nc(C(F)(F)F)cc2n1 [Compound 28, 5-(3-(ethylsulfonyl)-6-(4-(1,1,2,2-tetrafluoroethoxy)phenyl)pyridin-2-yl)-2-(trifluoromethyl)pyrazolo[1,5-a]pyrimidine] | ≥ 70%
CCS(=O)(=O)c1cc(-c2ccc(Cl)c(F)c2)cnc1-c1ncc2nc(C(F)(F)F)n(C)c2n1 [Compound 124, 2-(5-(4-chloro-3-fluorophenyl)-3-(ethylsulfonyl)pyridin-2-yl)-9-methyl-8-(trifluoromethyl)-9H-purine] | ≥ 70%
